Data reported in patent US8716030B2, “Means for the inhibition of anti-β1-adrenergic receptor antibodies” (Julius-Maximillians-Universitat Wurzburg, A Germany …, priority 2005, dated 2014).
Entries after “also recorded” stand apart in the source; their conditions may differ. Like-named read-outs stand apart in the source and are kept apart here.

What was measured:
[1] = tested on: immunized anti-β1-positive cardiomyopathic rats; assay: Treatment of immune-cardiomyopathy in the human analogue rat model (therapy study); format: in vivo, Lewis CrlBR rats; settings: therapy every 4 weeks after 8 months of immunization; FIGS. 8a and 8b
Source text: Lewis CrlBR rats were used as animals. […] Therapy was started after 8 months of regular (1× monthly) immunization. Monthly immunization was continued under therapy.
FIG. 8b is a diagram comparing the titer course of specific anti-ECII antibodies dependent on the different peptide variants used in the therapy arm of the study, whereby 25AA means the cyclic peptide Ic, 18AA means the shorter 18 amino-acid variant, and 16AA the shorter 16 amino-acid variant of the peptide. “Beta1 untreated” means immunized anti-1-positive cardiomyopathic not treated animals, “Beta1/pept. […] ECII-25AA, ECII-18AA, ECII-16AA” means immunized anti-1-positive cardiomyopathic animals treated with the 25AA-, 18AA-, or 16AA-peptide, respectively.
[…]. In general, the number of amino acids and thus the length of the primary structure appears to be crucial for the biological effects of the peptides of the present invention. A peptide-length equal to or above 26 amino acids (primary structure) is thought to be capable of stimulating directly (that is, without the use of carrier proteins) immunocompetent T-cells and thus provoke a paradoxal increase in anti-β1-receptor antibody production through T-cell mediated B-cell stimulation. Therefore, in the frame of the therapy study a limited number of pilot animals was treated with shorter peptide-variants of the 25 amino-acid peptide Ic, i.e. variants comprising either 18 or 16 amino-acids of the cyclic peptide. The used constructs were: ECII-18AA, cyclo([…] (SEQ ID NO:1); and ECII-16AA, cyclo([…] (SEQ ID NO.2). Upon administration of shorter peptide-variants of the present invention peptide every 4 weeks, a rapid decrease in the specific anti-beta 1-ECII antibody titer was equally observed within the first 6 months of therapy.

[2] = tested on: immunized anti-β1-positive cardiomyopathic rats; assay: as above; format: in vivo, Lewis CrlBR rats; settings: for biological efficiency (reversal of the cardiomyopathic phenotype) / regression of LV dilatation: echocardiography; for biological efficiency (reversal of the cardiomyopathic phenotype): FIGS. 10d and 11d; for regression of LV dilatation: therapy study; for progression of the disease monitored by echocardiography: within the 12 months of treatment, compared with untreated antibody positive animals, FIGS. 10 and 11
[3] = tested on: rats immunized against the second β1-receptor loop (β1-ECII); assay: Prevention of immune-cardiomyopathy in the human analogue rat model
[4] = tested on: CD4+ T-cells; assay: T-cell recall assay with CD4+ T-cells from immunized animals (FIG. 19); format: cell-based, rat; settings: T-cells from prophylactically or therapeutically treated immunized animals; peptide 10 μg/ml, FP 1.0 or 0.1 μg/mL
Method: “Cont.” means the respective not immunized control animals. The assays were carried out according to Schmidt J. et al. (2003) J Neuroimmunol. 140, 143-152. In brief, to purify CD4+ T-cells from the splenic cell preparations, B-cells and CD8+ T-cells were depleted by commercially available magnetic beads (MACS®), yielding a purity of CD4+ cells >85%. 1×10^5 CD4+ of the purified T-cells were then co-incubated in 96-well plates with 1×10^6 irradiated thymic antigen presenting cells (prepared from a younger rat). Reagents added in the different assays (conditions) were: 10 μg/ml glutathion-S-transferase (GST), 2 μg/ml Concanavalin A (ConA, positive control), 10 μg/ml 25AA-ECII peptide (Pept.25AA), and GST/beta1-ECII fusion protein (FP) at a concentration of 1.0 and 0.1 μg/ml, respectively. The measured T-cell reactivities were normalized to the respective T-cell reactivities obtained with 10 μg/ml purified protein derivative (PPD) carried out in parallel under each condition. After 48 hours of incubation, 50% of the supernatants were removed and replaced by fresh medium. The cells were then pulsed with 1.25 μCi/well [^3H]-thymidine and further incubated for 16 hours before the cells were harvested, and the DNA-incorporated radioactivity was measured using a beta-plate.

[5] = tested on: rats immunized against the second β1-receptor loop (β1-ECII); settings: rat, in vivo

| Compound | circulating specific anti-β1-ECII antibody titer [1] | biological efficiency (reversal of the cardiomyopathic phenotype) [2] | regression of LV dilatation [2] | specific anti-β1-ECII antibody-titer ([3]; 1 mg/kg s.c. or i.v. every 4 weeks, prophylactic, FIG. 4) | immune response upon antigen boost every 4 weeks ([3]; from the fifth month on, FIG. 4) | stimulation and proliferation of CD4+ T-cells [4] | progression of the disease monitored by echocardiography [2] | heart rate [5] | impact on heart rate and blood pressure ([3]; FIG. 12 and FIG. 13, examples 3 and 4 (prevention and therapy study)) | heart rate ([3]; prophylactic treatment, FIGS. 5 and 12) | cardiac β1-receptor density (down-/upregulation) ([2]; FIGS. 17 and 18 (prevention and therapy study)) |
| --- | --- | --- | --- | --- | --- | --- | --- | --- | --- | --- | --- |
| cyclo(Ala-Asp-Glu-Ala-Arg-Arg-Cys-Tyr-Asn-Asp-Pro-Lys-Cys-Cys-Asp-Phe-Val-Gln) (cyclo(ADEARRCYNDPKCCDFVQ); not fully specified; printed as cyclo(Ala-Asp-Glu-Ala-Arg-Arg-Cys-Tyr-Asn-Asp-Pro-Lys-Cys-Cys-Asp-Phe-Val-Gln); cysteine pairing not given here) [ECII-18AA] | reduced by about a same extent | reversal of the cardiomyopathic phenotype | significant regression of LV dilatation | – | – | – | – | – | – | – | – |
| cyclo(Ala-Arg-Ala-Glu-Ser-Asp-Glu-Ala-Arg-Arg-Cys-Tyr-Asn-Asp-Pro-Lys-Cys-Cys-Asp-Phe-Val-Thr-Asn-Arg-Gln) (cyclo(ARAESDEARRCYNDPKCCDFVTNRQ); not fully specified; printed as cyclo(Ala-Arg-Ala-Glu-Ser-Asp-Glu-Ala-Arg-Arg-Cys-Tyr-Asn-Asp-Pro-Lys-Cys-Cys-Asp-Phe-Val-Thr-Asn-Arg-Gln); cysteine pairing not given here) [peptide Ic] | surprisingly rapid decrease; also recorded: reduced by about a same extent | reversal of the cardiomyopathic phenotype | significant regression of LV dilatation | prevented a further increase of the specific anti-β1-ECII antibody-titer with the titer even continuously declining | no more immune response | neither treatment group resulted in a significant stimulation | no progression | did neither decrease heart rate | – | – | – |
| CC(C)NCC(O)COc1ccc(COCCOC(C)C)cc1 (stereo not drawn) [bisoprolol, reference compound] | had even higher beta1-antibody titers | – | could not be reversed completely | – | – | – | no progression | – | significantly reduced both heart rate and blood pressure | significant reduction in heart rate | β1-receptor upregulation |
| cyclo(Ala-Arg-Arg-Cys-Tyr-Asn-Asp-Pro-Lys-Cys-Cys-Asp-Phe-Val-Tyr-Gln) (cyclo(ARRCYNDPKCCDFVYQ); not fully specified; printed as cyclo(Ala-Arg-Arg-Cys-Tyr-Asn-Asp-Pro-Lys-Cys-Cys-Asp-Phe-Val-Tyr-Gln); cysteine pairing not given here) [ECII-16AA] | remain stable instead of decreasing | ambiguous results in 2 treated rats with one animal having complete reversal of the cardiomyopathic phenotype, the other animal progressive LV dilatation and dysfunction | obviously being less effective | – | – | – | at least the progression of the disease was stopped or stabilized | – | – | – | – |
